# Where two headings read alike, the source gives them in different places. Non-standard residues stand in square brackets, D forms with d. Residues, ends and D or L forms follow the SMILES beside them. *: point of attachment. X2 = O=C(CCCCCCCC(=O)*)N1CCN(c2ncnc3[nH]ccc23)CC1
# Assays:
# PKAcα [1] = biological target: T1, PKAcα (Homo sapiens, UniProt P17612); experiment: FA-based competitive binding/displacement assay (probe ARC-583); conditions: for influence of TCEP on the displacement curve: FA assay, TCEP 1 mM
# Text: (§1) In the present work, photoluminescence-based competitive equilibrium binding assay was used to establish the KD and KD^app values of the novel compounds as determined before and after fragmentation, respectively. […] Two assay formats were used, which were designed for the determination of KD values of high-affinity bivalent inhibitors and the mixtures of their low-affinity fragments, respectively.
# A typical assay setup based on the measurement of FA utilizes concentrations of the fluorescence probes slightly below the concentration of the target protein but higher than the KD^* to achieve maximal Δr. The assay in the present work was conducted at 2 nM ARC-583 and 3 nM PKAcα. […] Thus, the KD values for low-affinity compounds can be reliably established with this FA-based assay format.
# The fluorescence intensity (FI), fluorescence anisotropy (FA), and time gated photoluminescence intensity (TGLI) measurements were performed with a PHERAstar (BMG Labtech) microplate reader. The FI and FA measurements of the photoluminescent probe ARC-583 were performed with FP optical module [EX 540(50) nm, EM 590(50) nm]. The detector was adjusted with solution of the free probe ARC-583 (in the absence of PKAcα). […] The TGLI measurements of photoluminescent probes ARC-1182 and ARC-1063 were performed with HTRF optical module (EX 330(50) nm, EM 675(50) nm). The TGLI was recorded for 200 µs after 60 µs delay from the flash-excitation.
# Upon arrival, the stock solution of PKAcα was divided into batches and stored at −80 °C. After removal from a freezer at −80 °C, the batches of PKAcα were stored at 0 °C in an ice box until consumed, to avoid repetitive freeze-thaw cycles.
# The microplates were incubated for 30 min at 30 °C before measurements. The measurements were repeated after 60 min to verify that the reactions had reached the equilibrium. […] Formation of the complex was observed by the change of FA and the concentration of PKAcα was calculated as previously described [40, 42]. […] First, the solutions were incubated for 30 min at 30 °C, thereafter the FA or TGLI signals were measured. Then, the stock solution of TCEP (1 µL) was added to all wells to the final concentration of 1 mM. The microplates were then incubated for an additional 30 min at 30 °C and the FA or TGLI signals were measured in the presence of TCEP. All experiments were carried out in at least two replicates (n ≥ 2) and the reported errors are the standard errors of the mean.
# The anisotropy change (Δr) with respect to the anisotropy of free photoluminescent probe ARC-583 and the TGLI of the photoluminescent probes ARC-1182 and ARC-1063 were plotted as functions of log[I]T, where [I]T corresponds to the total concentration of the ‘dark’ ligand/inhibitor that competes with the probe for the binding to the catalytic subunit of PK ([I]T = [I] + [PK:I], where [I] and [PK:I] correspond to the equilibrium concentrations of unbound I and PK:I complex, respectively).
# [2] = HPLC-MS analysis of the fragmentation of ARC-2121 and ARC-2194; format: physicochemical; conditions: TCEP 1 mM, pH 7.5, 30 °C
# Experimental: At fixed time points (1, 10, 30, 60, and 120 min), 10 µL of the solution (corresponding to 1 nmol of the substrate) was injected into the RP-HPLC column.
# ARC-2121 (200 µM) was dissolved in H2O:MeCN (10:1). ARC-2121 (200 µM, 20 µL) was irradiated for a fixed time (15, 30, 60, 90, and 120 s) inside a microtiter plate at room temperature (rt) using the custom-made 365 nm LED array (Figure S2). Then, 9 µL (1.7 nmol) of the solution was injected into the RP-HPLC column.
# PKAcα [3] = experiment: Estimated dynamic range of enzyme activity change upon deactivation (Equations 2, 3); conditions: estimated from change of KD app / IC50 upon deactivation
# Text: In general, deactivation of an inhibitor can be observed by a shift of a dose-response curve in a biochemical assay, which is caused by the increase of IC50 value from IC50^ON (the IC50 of the active inhibitor) to IC50^OFF (the IC50 of the deactivated inhibitor). The fraction of the active enzyme before and after applying the trigger depends on the initial concentration of the deactivatable inhibitor. If the sigmoidal dose–response model describes the concentration dependencies of the inhibition before and after applying the stimulus, the biggest change of the fraction of the active enzyme in the solution is observed at the concentration of the inhibitor Iopt whose logarithm is the average of the corresponding logIC50 values (Equation (2)):(2) logIopt=1/2logIC50ON+logIC50OFF
# The ratio of fractions of active enzyme after (a^maxopt) and before (a^minopt) deactivation of the inhibitor (i.e., the on/off ratio of the activity of the enzyme) is determined by the square root of the ratio of the corresponding IC50 values (Equation (3)):(3) aoptmax/aoptmin=IC50OFF/IC50ON^1/2
# Thus, the larger the difference between IC50^ON and IC50^OFF values is (ΔIC50), the higher the dynamic range of activity change (Δaopt = a^maxopt − a^minopt) of the enzyme is. […]
# PKAcα [4] = conditions: cited from earlier work
# PKAcα [5] = system: PKAcα; design: method as in PMID 17125267; conditions: cited from earlier work
# PKAcα [6] = biological target: T1, PKAcα
# Text: as §1
# The first assay was based on the measurement of the time-gated photoluminescence signal intensity (TGLI) and it utilized ARC-Lum(Fluo) probes ARC-1063 or ARC-1182, which both emit long life-time photoluminescence signal when associated with a target PK [38]. ARC-1063 and ARC-1182 differ by the fluorescent label (Figure S7) and the choice between these probes was only based on the availability of the particular probe. […]
# The displacement data were fitted to the previously described [40, 42] exact model of competitive binding (further explained in Appendix A) to determine KD and KD^app values, which were used as concentration- and probe-independent quantities to evaluate the deactivation efficiencies of the novel compounds.
# The fluorescence intensity (FI), fluorescence anisotropy (FA), and time gated photoluminescence intensity (TGLI) measurements were performed with a PHERAstar (BMG Labtech) microplate reader. […] The TGLI was recorded for 200 µs after 60 µs delay from the flash-excitation. […]
compound,measurement,setting,value
"c1nc(N2CCNCC2)c2cc[nH]c2n1 [Compound 2a, 4-(piperazin-1-yl)-7H-pyrrolo [2,3-d]pyrimidine]",Kd,PKAcα [1],550 ± 150 nM
same,influence of TCEP on the displacement curve,PKAcα [1],not influenced
N=C(N)NCCC[C@@H](NC(=O)[C@@H](CCCNC(=N)N)NC(=O)[C@@H](CCCNC(=N)N)NC(=O)[C@@H](CCCNC(=N)N)NC(=O)[C@@H](CCCNC(=N)N)NC(=O)[C@@H](CCCNC(=N)N)NC(=O)OCCSSCCOC(=O)N1CCN(c2ncnc3[nH]ccc23)CC1)C(N)=O [ARC-2194],time to quantitative conversion of parent compound to 1a,[2]; 100 µM,less than 1 min
same,Δaopt (dynamic range of activity change of the enzyme),PKAcα [3],98%
"NC(=O)CCCCCCCC(=O)N1CCN(c2ncnc3[nH]ccc23)CC1 [Compound 11a, 7DP-Pip-Nda-amide]",Kd,PKAcα [1],460 ± 210 nM
O=S(=O)(NCCNC/C=C/c1ccc(Br)cc1)c1cccc2cnccc12 [Compound H-89],Kd,PKAcα [4]; H-89:PKAcα complex,9 nM
same,influence of TCEP on the displacement curve,PKAcα [1],not influenced
hexa-D-arginine,inhibitory potency,PKAcα [5],millimolar
O=C(OCCS)N1CCN(c2ncnc3[nH]ccc23)CC1 [Compound 1a],fraction converted to 2a,[2]; after 2 h,more than 50%
N=C(N)NCCC[C@@H](NC(=O)CCCCCCCC(=O)N1CCN(c2ncnc3[nH]ccc23)CC1)C(=O)N[C@H](CCCNC(=N)N)C(=O)N[C@H](CCCNC(=N)N)C(=O)N[C@H](CCCNC(=N)N)C(=O)N[C@H](CCCNC(=N)N)C(=O)N[C@H](CCCNC(=N)N)C(=O)N[C@H](CCCCN)C(N)=O [ARC-1411] (X2-[dR][dR][dR][dR][dR][dR][dK]-NH2),Kd,PKAcα [4]; previously measured affinity,0.003 nM
same,influence of TCEP on the displacement curve,PKAcα [1],not influenced
same,Kd,PKAcα [6],3 ± 1 pM

# Source: PMC9573699, “Deactivatable Bisubstrate Inhibitors of Protein Kinases” (Molecules, 2022)
